Test results: patent US20220047656A1, “SACCHAROMYCES CEREVISIAE YEAST STRAIN FOR THE TREATMENT AND/OR PREVENTION OF OROPHARYNGEAL CANDIDIASIS” (LESAFFRE ET COMPAGNIE, priority 2018, published 2022)

Assays:
Format in all cases: in vivo, C57BL/6 mice
TNF-α = assay: ELISA of TNF-α in supernatants of tongue homogenates; conditions: vs infected mice treated with saline solution
IL-1β = assay: ELISA of IL-1β in supernatants of tongue homogenates; conditions: vs infected mice treated with saline solution
IL-6 = assay: ELISA of IL-6 in supernatants of tongue homogenates

For `OC(Cn1cncn1)(Cn1cncn1)c1ccc(F)cc1F` [FLZ, fluconazole], which “production of TNF-α” value (TNF-α; 3 days after infection) is on record?
The value was “considerable inhibition”.

And the “production of TNF-α” value (TNF-α; 6 days post-infection)?
Its value is “significant decrease”.

What about the “production of IL-1β” value (IL-1β; 3 days after infection) of the same compound?
Its value is “considerable inhibition”.

And the “production of IL-1β” value (IL-1β; 6 days post-infection)?
The value was “significant decrease”.

And the “production of IL-6” value (IL-6; 3 days after infection, otherwise unchanged compared to the untreated mice)?
The value was “exception”.

What about the “production of IL-6” value (IL-6; 6 days post-infection, vs infected mice treated with saline solution) of the same compound?
The value was “significant decrease”.
